Laboratory results published in patent US9540338B2, “Substituted cinnamic acid amides for treating pain” (NIPPON ZOKI PHARMACEUTICAL CO., LTD., priority 2012, dated 2017).
Structures can show the parent of a compound that is named as a salt. Marks after values point to notes of the source that are not given here.

Key:
Chung model rat = test: Analgesic efficacy test (2): Chung model rat, neuropathic pain model (allodynia, von Frey filament); format: in vivo, rats; conditions: mean ± standard error
Procedure: An analgesic efficacy test was conducted using a Chung model rat, a neuropathic pain model. Nine-week old Wistar male rats were previously bred as an experimental animal, and a model rat was then prepared in accordance with the method of Kim and Chung (Pain, 50, 355-363, 1992). Specifically, left L5 spinal nerves of rats were exposed under anesthetization with pentobarbital (40 mg/kg, intraperitoneal administration), and firmly ligated with 5-0 silk yarn at L5 dorsal root ganglion peripheral side. The animals were placed in a transparent acrylic cage of which bottom was wire netted The measurement of allodynia was carried out using von Frey filament (manufactured by North Coast Medical Inc.) and a 50% reaction threshold was calculated according to an up-down method, in accordance with a method of Chaplan et al. (J. Neurosci. Method, 53, 55-63, 1994). The 50% reaction thresholds were measured twice before injury of the spinal nerve, and those animals of which thresholds were outside the standard were removed from the operation of spinal nerve injury. On or after 14 days from the spinal nerve injury, a 50% reaction threshold was measured, and those showing thresholds of 1 g or more and less than 4 g were used as experimental animal. The group was constituted by 7 or 8 rats per group so that an average of a 50% reaction threshold for each group would be nearly even.
A solution or suspension prepared by dissolving or suspending a compound of the present invention in a 0.5% (w/v) aqueous CMC-Na solution was orally administered as a test substance in a single dose. Also, a 0.5% (w/v) aqueous CMC-Na solution was administered in the same manner to the control group for nerve injury. The measurements of allodynia were carried out with the passage of time after administration, and a 50% reaction threshold (mean±standard error) of each group at action peak was calculated. In the test for significance difference, Bartlett's test was carried out in the comparison between multiple groups of the group administered with test substance with the control group for nerve injury. In the case of homoscedasticity, Dunnett's multiple comparison test of parametrics, and in the case of heteroscedasticity, Dunnett's multiple comparison test of non-parametrics were used. In all cases, significance difference was considered to be found at P<0.05 (indicated as “*” in the tables).

[1] = oral 1 mg/kg, measurement point 90 minute (action peak)
[2] = oral 10 mg/kg, measurement point 90 minute (action peak)
[3] = oral 1 mg/kg, measurement point 60 minute (action peak)
[4] = oral 10 mg/kg, measurement point 60 minute (action peak)

melting point | SMILES | further results
128 to 129 °C | Nc1ccccc1CCNC(=O)/C=C/c1ccccc1F [Compound 19, (E)-N-[2-(2-Aminophenyl)ethyl]-3-(2-fluorophenyl)-2-propenamide] | 
143 to 145 °C | O=C(/C=C/c1ccccc1F)NCCn1cnc2ccccc21 [Compound 22, (E)-N-[2-(Benzoimidazol-1-yl)ethyl]-3-(2-fluorophenyl)-2-propenamide] | 
113 to 115 °C | O=C(/C=C/c1ccc(F)cc1F)NCCn1ccnc1 [Compound 23, (E)-3-(2,4-Difluorophenyl)-N-[2-(imidazol-1-yl)ethyl]-2-propenamide] | 50% Reaction Threshold, Group Administered with Test Substance, After Administration (Chung model rat; [1]): 8.22 ± 1.43* g; 50% Reaction Threshold, Group Administered with Test Substance, After Administration (Chung model rat; [2]): 9.81 ± 1.27* g
118 to 120 °C | O=C(/C=C/c1cc(F)ccc1F)NCCn1ccnc1 [Compound 24, (E)-3-(2,5-Difluorophenyl)-N-[2-(imidazol-1-yl)ethyl]-2-propenamide] | 50% Reaction Threshold, Group Administered with Test Substance, After Administration (Chung model rat; [3]): 4.63 ± 0.36 g; 50% Reaction Threshold, Group Administered with Test Substance, After Administration (Chung model rat; [4]): 7.85 ± 0.99* g
80 to 81 °C | O=C(/C=C/c1cccc(F)c1)NCCCN1CCOCC1 [Compound 25, (E)-3-(3-Fluorophenyl)-N-(3-morpholinopropyl)-2-propenamide] | 50% Reaction Threshold, Group Administered with Test Substance, After Administration (Chung model rat; [3]): 8.17 ± 1.09* g; 50% Reaction Threshold, Group Administered with Test Substance, After Administration (Chung model rat; [4]): 9.68 ± 1.20* g
88 to 89 °C | O=C(/C=C/c1ccc(F)cc1)NCCCN1CCOCC1 [Compound 26, (E)-3-(4-Fluorophenyl)-N-(3-morpholinopropyl)-2-propenamide] | 50% Reaction Threshold, Group Administered with Test Substance, After Administration (Chung model rat; [3]): 10.25 ± 1.07* g; 50% Reaction Threshold, Group Administered with Test Substance, After Administration (Chung model rat; [4]): 14.33 ± 0.67* g
97 to 99 °C | O=C(/C=C/c1cccc(F)c1F)NCCCN1CCOCC1 [Compound 27, (E)-3-(2,3-Difluorophenyl)-N-(3-morpholinopropyl)-2-propenamide] | 
94 to 95 °C | O=C(/C=C/c1ccc(F)cc1F)NCCCN1CCOCC1 [Compound 28, (E)-3-(2,4-Difluorophenyl)-N-(3-morpholinopropyl)-2-propenamide] | 50% Reaction Threshold, Group Administered with Test Substance, After Administration (Chung model rat; [3]): 8.44 ± 1.81* g; 50% Reaction Threshold, Group Administered with Test Substance, After Administration (Chung model rat; [4]): 12.05 ± 1.44* g
71 to 72 °C | O=C(/C=C/c1cc(F)ccc1F)NCCCN1CCOCC1 [Compound 29, (E)-3-(2,5-Difluorophenyl)-N-(3-morpholinopropyl)-2-propenamide] | 50% Reaction Threshold, Group Administered with Test Substance, After Administration (Chung model rat; [3]): 5.10 ± 0.42 g; 50% Reaction Threshold, Group Administered with Test Substance, After Administration (Chung model rat; [4]): 10.51 ± 1.15* g
75 to 76 °C | O=C(/C=C/c1c(F)cccc1F)NCCCN1CCOCC1 [Compound 30, (E)-3-(2,6-Difluorophenyl)-N-(3-morpholinopropyl)-2-propenamide] | 
127 to 128 °C | O=C(/C=C/c1ccc(F)c(F)c1)NCCCN1CCOCC1 [Compound 31, (E)-3-(3,4-Difluorophenyl)-N-(3-morpholinopropyl)-2-propenamide] | 
102 to 103 °C | O=C(/C=C/c1ccc(C(F)(F)F)cc1F)NCCCN1CCOCC1 [Compound 32, (E)-3-(2-Fluoro-4-trifluoromethylphenyl)-N-(3-morpholinopropyl)-2-propenamide] | 
83 to 84 °C | O=C(/C=C/c1ccccc1F)NCCN1CCCC1 [Compound 35, (E)-3-(2-Fluorophenyl)-N-[2-(pyrrolidin-1-yl)ethyl]-2-propenamide] | 
80 to 81 °C | O=C(/C=C/c1ccccc1F)NCCN1CCCCCC1 [Compound 36, (E)-N-[(2-Azepan-1-yl)ethyl]-3-(2-fluorophenyl)-2-propenamide] | 
123 to 124 °C | COc1ccc(CCNC(=O)/C=C/c2ccccc2F)cc1 [Compound 37, (E)-3-(2-Fluorophenyl)-N-[2-(4-methoxyphenyl)ethyl]-2-propenamide] | 
96 to 98 °C | O=C(/C=C/c1ccccc1F)NCCn1ccc2ccccc21 [Compound 41, (E)-3-(2-Fluorophenyl)-N-[2-(indol-1-yl)ethyl]-2-propenamide] | 
163 to 164 °C | O=C(/C=C/c1ccccc1F)NCCn1ccnc1-c1ccccc1 [Compound 44, (E)-3-(2-Fluorophenyl)-N-[2-(2-phenylimidazol-1-yl)ethyl]-2-propenamide] | 
116 to 118 °C | O=C(/C=C/c1ccccc1F)Nc1ccc(-c2ccn[nH]2)cc1 [Compound 51, (E)-3-(2-Fluorophenyl)-N-[4-(2H-pyrazol-3-yl)phenyl]-2-propenamide] | 
204 to 206 °C | O=C(/C=C/c1ccccc1F)Nc1ccc(-c2ccno2)cc1 [Compound 53, (E)-3-(2-Fluorophenyl)-N-[4-(isoxazol-5-yl)phenyl]-2-propenamide] | 
110 to 111 °C | N#C/C(=C\c1ccc(F)cc1)C(=O)NCCCN1CCOCC1 [Compound 58, (E)-2-Cyano-3-(4-fluorophenyl)-N-(3-morpholinopropyl)-2-propenamide] | 
193 to 195 °C | O=C(O)CCNC(=O)/C=C/c1ccccc1F [Compound 66, 3-{[(E)-3-(2-Fluorophenyl)-2-propenoyl]amino}propanoic acid] | 

Continued, compound first:

SMILES | melting point | further results
Cl.O=C(/C=C/c1ccccc1F)NCCc1cccnc1 | 116 to 117 °C | 
CN(C)CCCCNC(=O)/C=C/c1ccccc1F.Cl | 107 to 108 °C | 
Cl.O=C(/C=C/c1cccc(C(=O)O)c1)NCCn1ccnc1 | 195 to 197 °C | 
Cl.O=C(/C=C/c1ccc(C(=O)O)cc1)NCCn1ccnc1 | 237 to 238 °C | 
Cl.O=C(/C=C/c1ccccc1C(F)(F)F)NCCCN1CCOCC1 | 197 to 198 °C | 
Cl.O=C(/C=C/c1ccccc1F)NCCCN1CCCCC1 | 166 to 167 °C | 
Cl.O=C(/C=C/c1ccccc1F)NCCCNC1CCCCC1 | 227 to 228 °C | 
C/C(=C\c1ccccc1F)C(=O)NCCCN1CC[S+]([O-])CC1.Cl | 180 to 181 °C | 
O=C(/C=C/c1ccccc1F)NCCCN1CCNCC1 (as salt: hydrochloride) | 143 to 144 °C | 
O=C(/C=C/c1ccccc1F)NCCc1ccccn1 (as salt: hydrochloride) [Compound 9, (E)-3-(2-Fluorophenyl)-N-[2-(2-pyridyl)ethyl]-2-propenamide hydrochloride] | 86 to 87 °C | 
CN1CCN(CCCNC(=O)/C=C/c2ccccc2F)CC1 (as salt: hydrochloride) [Compound 15, (E)-3-(2-Fluorophenyl)-N-[3-(4-methylpiperazin-1-yl)propyl]-2-propenamide dihydrochloride] | 133 to 138 °C | 
O=C(/C=C/c1ccccc1F)NCCN1CCNCC1 (as salt: hydrochloride) [Compound 16, (E)-3-(2-Fluorophenyl)-N-[2-(piperazin-1-yl)ethyl]-2-propenamide dihydrochloride] | 212 to 213 °C | 
O=C(/C=C/c1ccccc1F)NCCn1cncn1 [Compound 39, (E)-3-(2-Fluorophenyl)-N-[2-([1,2,4]triazol-1-yl)ethyl]-2-propenamide dihydrochloride] |  | 50% Reaction Threshold, Group Administered with Test Substance, After Administration (Chung model rat; [1]): 3.55 ± 0.59 g; 50% Reaction Threshold, Group Administered with Test Substance, After Administration (Chung model rat; [2]): 4.05 ± 0.48* g
Cl.O=C(/C=C/c1ccccc1F)NCCCn1ccnc1 [Compound 45, (E)-3-(2-Fluorophenyl)-N-[3-(imidazol-1-yl)propyl]-2-propenamide hydrochloride] |  | 50% Reaction Threshold, Group Administered with Test Substance, After Administration (Chung model rat; [1]): 8.81 ± 1.05* g; 50% Reaction Threshold, Group Administered with Test Substance, After Administration (Chung model rat; [2]): 12.23 ± 1.10* g
O=C(/C=C/c1ccccc1C(=O)O)NCCn1ccnc1 [Compound 47, (E)-3-(2-Carboxyphenyl)-N-[(2-imidazol-1-yl)ethyl]-2-propenamide] |  | 50% Reaction Threshold, Group Administered with Test Substance, After Administration (Chung model rat; [3]): 10.58 ± 1.74* g; 50% Reaction Threshold, Group Administered with Test Substance, After Administration (Chung model rat; [4]): 13.58 ± 0.67* g
O=C(/C=C/c1ccccc1F)Nc1cccc(-c2ccn[nH]2)c1 [Compound 52, (E)-3-(2-Fluorophenyl)-N-[3-(2H-pyrazol-3-yl)phenyl]-2-propenamide] |  | 50% Reaction Threshold, Group Administered with Test Substance, After Administration (Chung model rat; oral 1 mg/kg, measurement point 30 minute (action peak)): 7.42 ± 1.14* g; 50% Reaction Threshold, Group Administered with Test Substance, After Administration (Chung model rat; oral 10 mg/kg, measurement point 30 minute (action peak)): 9.12 ± 2.00* g
